Assay results from ChEMBL document CHEMBL1201862, “PubChem BioAssay data set” (2004).
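These data come from cells grown in 96-well plates and exposed to compound for 48 hours at five concentrations. At the GI50, growth is halved.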 Activity calls are given as the source filed them. Rule as the data show it: active = GI50 up to about 1.1 µM and inactive = higher.

Experiments:
Experiment in all cases: growth of human tumour cells (NCI), 48 h
786-0 = tested on: 786-0
A549 = tested on: A549
EKVX = tested on: EKVX
HCC 2998 = tested on: HCC 2998
HOP-62 = tested on: HOP-62
MCF7 = tested on: MCF7
MDA-N = tested on: MDA-N
OVCAR-8 = tested on: OVCAR-8
RXF 393 = tested on: RXF 393
SF-268 = tested on: SF-268
SF-295 = tested on: SF-295
SK-MEL-28 = tested on: SK-MEL-28
SK-MEL-2 = tested on: SK-MEL-2
SK-MEL-5 = tested on: SK-MEL-5
SN12C = tested on: SN12C
SNB-19 = tested on: SNB-19
SNB-75 = tested on: SNB-75
SNB-78 = tested on: SNB-78
UACC-257 = tested on: UACC-257
UACC-62 = tested on: UACC-62

Structure (SMILES)	GI50 (786-0)	GI50 (A549)	GI50 (EKVX)	GI50 (HCC 2998)	GI50 (HOP-62)	GI50 (MCF7)	GI50 (MDA-N)	GI50 (OVCAR-8)	GI50 (RXF 393)	GI50 (SF-268)	GI50 (SF-295)	GI50 (SK-MEL-28)	GI50 (SK-MEL-2)	GI50 (SK-MEL-5)	GI50 (SN12C)	GI50 (SNB-19)	GI50 (SNB-75)	GI50 (SNB-78)	GI50 (UACC-257)	GI50 (UACC-62)
O=NN(CCCl)C(=O)NC1CCC(=O)NC1=O (stereo not drawn)	61.7 µM (inactive)	182 µM (inactive)	415 µM (inactive)	713 µM (inactive)	144 µM (inactive)	330 µM (inactive)	224 µM (inactive)	50 µM (inactive)	232 µM (inactive)	38.7 µM (inactive)	30.3 µM (inactive)	409 µM (inactive)	225 µM (inactive)	121 µM (inactive)	243 µM (inactive)	112 µM (inactive)	60.5 µM (inactive)	176 µM (inactive)	335 µM (inactive)	25.5 µM (inactive)
COC1C(C)OC(OC2CC(C)(O)Cc3cc4c(c(O)c32)C(=O)c2c(O)cc3c(c2C4=O)OC2OC3(C)C(O)C(N(C)C)C2O)C(OC)C1(C)OC (stereo not drawn)	0.0861 µM (active)	0.00498 µM (active)	0.0409 µM (active)	0.0342 µM (active)	0.0527 µM (active)	0.0331 µM (active)	0.00053 µM (active)	0.00496 µM (active)	0.00463 µM (active)	0.00484 µM (active)	0.0047 µM (active)	0.00557 µM (active)	0.0158 µM (active)	0.0237 µM (active)	0.0378 µM (active)	0.00378 µM (active)	0.0165 µM (active)	0.0282 µM (active)	0.00553 µM (active)	0.016 µM (active)
Cc1ccc(NC(=O)CC(=O)n2nc(-c3ccccc3)c(/N=N\c3ccccc3[N+](=O)[O-])c2-c2ccccc2)cc1	28.4 µM (inactive)	90.2 µM (inactive)	> 100 µM (inactive)	> 100 µM (inactive)	82.2 µM (inactive)	–	–	67.5 µM (inactive)	55.1 µM (inactive)	51.2 µM (inactive)	29 µM (inactive)	> 100 µM (inactive)	> 100 µM (inactive)	57.5 µM (inactive)	> 100 µM (inactive)	56.6 µM (inactive)	69.3 µM (inactive)	> 100 µM (inactive)	> 100 µM (inactive)	> 100 µM (inactive)
O=S(=O)(NCn1ccc2ccccc21)c1ccccc1	> 100 µM (inactive)	> 100 µM (inactive)	> 100 µM (inactive)	> 100 µM (inactive)	> 100 µM (inactive)	–	–	> 76.2 µM (inactive)	> 63.8 µM (inactive)	> 57.8 µM (inactive)	> 100 µM (inactive)	> 77.8 µM (inactive)	> 100 µM (inactive)	> 100 µM (inactive)	> 100 µM (inactive)	> 31.6 µM (inactive)	> 100 µM (inactive)	> 53.1 µM (inactive)	> 88.7 µM (inactive)	> 73.8 µM (inactive)
COC(=O)CCC(=O)CC1CC(=O)C2CCCN12 (stereo not drawn)	> 100 µM (inactive)	> 100 µM (inactive)	> 100 µM (inactive)	> 100 µM (inactive)	> 100 µM (inactive)	–	–	> 100 µM (inactive)	> 100 µM (inactive)	> 100 µM (inactive)	> 100 µM (inactive)	> 100 µM (inactive)	> 100 µM (inactive)	> 100 µM (inactive)	> 100 µM (inactive)	> 100 µM (inactive)	> 100 µM (inactive)	> 100 µM (inactive)	> 100 µM (inactive)	> 100 µM (inactive)
CCC[S+]([O-])c1nc(COC(=O)NC)c(COC(=O)NC)n1C (stereo not drawn)	> 100 µM (inactive)	> 100 µM (inactive)	> 100 µM (inactive)	> 100 µM (inactive)	> 100 µM (inactive)	> 100 µM (inactive)	–	> 100 µM (inactive)	> 100 µM (inactive)	> 100 µM (inactive)	> 100 µM (inactive)	> 100 µM (inactive)	> 100 µM (inactive)	> 100 µM (inactive)	> 100 µM (inactive)	> 100 µM (inactive)	> 100 µM (inactive)	> 100 µM (inactive)	> 100 µM (inactive)	> 100 µM (inactive)
